In US20260327191A1, “GSK3a INHIBITORS AND METHODS OF USE THEREOF” (Blueprint Medicines Corporation, priority 2023, published 2026):

Key:
human GSK3α = target: T1, human GSK3α (Homo sapiens, UniProt P49840); experiment: In vitro enzymatic activity assay, GSK3α; assay type: biochemical; conditions: 1.0 mM ATP, 1.0 μM peptide substrate, 120 min, 25° C, read-out: Enzyme GSK3α (IC50)
T1 construct: Full length human GSK3α or GSK3B expressed as N-terminal GST fusion proteins; GST (N); purchased Carna Biosciences (Japan); host or cells: baculovirus host
T1 sequence (P49840 whole entry, the tested form may be a part): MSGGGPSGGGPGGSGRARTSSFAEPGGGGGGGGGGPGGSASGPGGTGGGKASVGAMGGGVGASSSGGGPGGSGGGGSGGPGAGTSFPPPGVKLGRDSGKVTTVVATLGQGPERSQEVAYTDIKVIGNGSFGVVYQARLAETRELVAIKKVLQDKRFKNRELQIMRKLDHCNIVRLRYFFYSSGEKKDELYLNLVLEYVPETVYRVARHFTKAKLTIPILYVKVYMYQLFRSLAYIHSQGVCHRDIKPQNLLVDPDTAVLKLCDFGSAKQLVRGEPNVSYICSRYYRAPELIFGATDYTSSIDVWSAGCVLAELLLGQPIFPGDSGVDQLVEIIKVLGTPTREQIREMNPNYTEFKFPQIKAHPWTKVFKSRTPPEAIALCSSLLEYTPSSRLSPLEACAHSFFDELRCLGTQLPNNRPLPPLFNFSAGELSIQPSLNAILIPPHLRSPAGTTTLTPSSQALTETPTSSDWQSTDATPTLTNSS

GSK3B [1] = target: T2, GSK3B (Homo sapiens, UniProt P49841); experiment: In vitro enzymatic activity assay, GSK3β; assay type: biochemical; parameters: Full length human GSK3α or GSK3B expressed as N-terminal GST fusion proteins; GST (N); purchased Carna Biosciences (Japan); host or cells: baculovirus host; conditions: 1.0 mM ATP, 1.0 μM peptide substrate, 120 min, 25° C, read-out: Enzyme GSK3β (IC50)
T2 sequence (P49841 whole entry, the tested form may be a part): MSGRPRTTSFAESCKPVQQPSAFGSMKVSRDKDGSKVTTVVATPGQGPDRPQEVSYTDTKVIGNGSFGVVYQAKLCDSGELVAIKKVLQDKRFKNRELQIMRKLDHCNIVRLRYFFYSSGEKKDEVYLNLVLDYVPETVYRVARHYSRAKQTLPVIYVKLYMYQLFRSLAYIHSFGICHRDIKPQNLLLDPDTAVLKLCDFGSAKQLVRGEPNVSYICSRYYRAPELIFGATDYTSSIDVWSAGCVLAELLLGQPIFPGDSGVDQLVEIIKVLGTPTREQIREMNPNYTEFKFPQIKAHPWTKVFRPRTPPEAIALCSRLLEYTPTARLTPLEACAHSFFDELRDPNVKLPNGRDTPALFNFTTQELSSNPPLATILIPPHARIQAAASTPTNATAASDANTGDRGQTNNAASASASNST

GSK3A = target: T3, GSK3A (Homo sapiens, UniProt P49840); experiment: NanoBRET cellular target engagement assay, Nanoluc-GSK3A in HEK293 cells; assay type: cell-based; conditions: NanoBRET GSK3α IC50, HEK293 cells, tracer K-8, 2 hours, 37° C
T3 construct: expressed in transfected cells
T3 sequence (P49840 whole entry): as the sequence (P49840 whole entry, the tested form may be a part) above

GSK3B [2] = target: T2, GSK3B; experiment: NanoBRET cellular target engagement assay, Nanoluc-GSK3B in HEK293 cells; assay type: cell-based; parameters: expressed in transfected cells; conditions: NanoBRET GSK3β IC50, HEK293 cells, tracer K-8, 2 hours, 37° C

IC50 (human GSK3α) [µM] | IC50 (GSK3B [1]) [µM] | IC50 (GSK3A) [µM] | IC50 (GSK3B [2]) [µM] | Compound
0.0317 | 1.95 | 0.0093 | 0.914 | CCOc1cc(C)c(-n2cnc(N)c(C(=O)Nc3cncc(C4CCC(C)N4)c3)c2=O)c(C)c1 (single isomer, unassigned) [Example 93]
0.0098 | 0.465 | 0.0043 | 0.29 | CCOc1cc(C)c(-n2cnc(N)c(C(=O)Nc3cncc(C4CCCCCN4)c3)c2=O)c(C)c1 (single isomer, unassigned) [Example 95, (R)-4-amino-N-(5-(azepan-2-yl)pyridin-3-yl)-1-(4-ethoxy-2,6-dimethylphenyl)-6-oxo-1,6-dihydropyrimidine-5-carboxamide or (S)-4-amino-N-(5-(azepan-2-yl)pyridin-3-yl)-1-(4-ethoxy-2,6-dimethylphenyl)-6-oxo-1,6-dihydropyrimidine-5-carboxamide]
0.0164 | 0.706 | 0.0067 | 0.64 | CCOc1cc(C)c(-n2cnc(N)c(C(=O)Nc3cncc(C4CCCC(C)N4)c3)c2=O)c(C)c1 (single isomer, unassigned) [Example 96]
0.0132 | 0.581 | 0.0066 | 0.532 | COCc1cc(C)c(-n2cnc(N)c(C(=O)Nc3cncc([C@H]4CC[C@H](C)N4)c3)c2=O)c(C)c1 (single isomer, unassigned) [Example 103]
0.01 | 0.671 | 0.0039 | 0.434 | Cc1cc(C(F)F)cc(C)c1-n1cnc(N)c(C(=O)Nc2cncc(C3CCCC(C)N3)c2)c1=O (single isomer, unassigned) [Example 107]
0.0246 | 0.998 | 0.0087 | 0.688 | Cc1cc(C(F)F)cc(C)c1-n1cnc(N)c(C(=O)Nc2cncc([C@H]3CCC[C@H](C)N3)c2)c1=O (single isomer, unassigned) [Example 108]
0.0105 | 0.493 | 0.0051 | 0.349 | Cc1cc(C(F)CF)cc(C)c1-n1cnc(N)c(C(=O)Nc2cncc(C3CCCCCN3)c2)c1=O (single isomer, unassigned) [Example 112]
0.0076 | 0.362 | 0.0047 | 0.281 | Cc1cc(C(F)CF)cc(C)c1-n1cnc(N)c(C(=O)Nc2cncc(C3CCCCCN3)c2)c1=O (single isomer, unassigned) [Example 115]
0.0029 | 0.125 | 0.0018 | 0.101 | CNCc1cncc(NC(=O)c2c(N)ncn(-c3c(Cl)cc(C(F)CF)cc3Cl)c2=O)c1 (single isomer, unassigned) [Example 116, (R)-4-amino-1-(2,6-dichloro-4-(1,2-difluoroethyl)phenyl)-N-(5-((methylamino)methyl)pyridin-3-yl)-6-oxo-1,6-dihydropyrimidine-5-carboxamide or (S)-4-amino-1-(2,6-dichloro-4-(1,2-difluoroethyl)phenyl)-N-(5-((methylamino)methyl)pyridin-3-yl)-6-oxo-1,6-dihydropyrimidine-5-carboxamide]

Further lines, the compound ahead of its results:

Compound | IC50 (human GSK3α) [µM] | IC50 (GSK3B [1]) [µM] | IC50 (GSK3A) [µM] | IC50 (GSK3B [2]) [µM]
Cc1cc(C(F)(F)F)cc(C)c1-n1cnc(N)c(C(=O)Nc2cncc(C3CCCCCN3)c2)c1=O (single isomer, unassigned) [Example 89, (R)-4-amino-N-(5-(azepan-2-yl)pyridin-3-yl)-1-(2,6-dimethyl-4-(trifluoromethyl)phenyl)-6-oxo-1,6-dihydropyrimidine-5-carboxamide or (S)-4-amino-N-(5-(azepan-2-yl)pyridin-3-yl)-1-(2,6-dimethyl-4-(trifluoromethyl)phenyl)-6-oxo-1,6-dihydropyrimidine-5-carboxamide] | 0.0102 | 0.669 | 0.0064 | 0.485
Cc1cc(C(F)(F)F)cc(C)c1-n1cnc(N)c(C(=O)Nc2cncc(C3CCCC(C)N3)c2)c1=O (single isomer, unassigned) [Example 90] | 0.0156 | 1.07 | 0.0065 | 0.7
CCOc1cc(C)c(-n2cnc(N)c(C(=O)Nc3cncc(C4CCC(C)N4)c3)c2=O)c(C)c1 (single isomer, unassigned) [Example 92] | 0.0164 | 1.03 | 0.0068 | 0.584
COCc1cc(C)c(-n2cnc(N)c(C(=O)Nc3cncc(C4CCCCCN4)c3)c2=O)c(C)c1 (single isomer, unassigned) [Example 100, (R)-4-amino-N-(5-(azepan-2-yl)pyridin-3-yl)-1-(4-(methoxymethyl)-2,6-dimethylphenyl)-6-oxo-1,6-dihydropyrimidine-5-carboxamide or (S)-4-amino-N-(5-(azepan-2-yl)pyridin-3-yl)-1-(4-(methoxymethyl)-2,6-dimethylphenyl)-6-oxo-1,6-dihydropyrimidine-5-carboxamide] | 0.0082 | 0.348 | 0.0039 | 0.293
COCc1cc(C)c(-n2cnc(N)c(C(=O)Nc3cncc(C4CCC(C)N4)c3)c2=O)c(C)c1 (single isomer, unassigned) [Example 101] | 0.0196 | 0.941 | 0.0078 | 0.8
COCc1cc(C)c(-n2cnc(N)c(C(=O)Nc3cncc([C@H]4CCC[C@H](C)N4)c3)c2=O)c(C)c1 (single isomer, unassigned) [Example 102] | 0.0165 | 0.684 | 0.005 | 0.584
CCOc1cc(C)c(-n2cnc(N)c(C(=O)Nc3cncc(C(C)N)c3)c2=O)c(C)c1 (single isomer, unassigned) [Example 104, (R)-4-amino-N-(5-(1-aminoethyl)pyridin-3-yl)-1-(4-ethoxy-2,6-dimethylphenyl)-6-oxo-1,6-dihydropyrimidine-5-carboxamide or (S)-4-amino-N-(5-(1-aminoethyl)pyridin-3-yl)-1-(4-ethoxy-2,6-dimethylphenyl)-6-oxo-1,6-dihydropyrimidine-5-carboxamide] | 0.0162 | 0.746 | 0.0079 | 0.521
Cc1cc(C(F)CF)cc(C)c1-n1cnc(N)c(C(=O)Nc2cncc([C@H]3CCCCN3)c2)c1=O (single isomer, unassigned) [Example 113, 4-amino-1-(4-((R)-1,2-difluoroethyl)-2,6-dimethylphenyl)-6-oxo-N-(5-((R)-piperidin-2-yl)pyridin-3-yl)-1,6-dihydropyrimidine-5-carboxamide or 4-amino-1-(4-((S)-1,2-difluoroethyl)-2,6-dimethylphenyl)-6-oxo-N-(5-((R)-piperidin-2-yl)pyridin-3-yl)-1,6-dihydropyrimidine-5-carboxamide] | 0.003 | 0.133 | 0.0017 | 0.107
Cc1cc(C(F)CF)cc(C)c1-n1cnc(N)c(C(=O)Nc2cncc(C(C)N)c2)c1=O (single isomer, unassigned) [Example 114] | 0.0121 | 0.507 | 0.0044 | 0.252
